Source: ChEMBL document CHEMBL3734733, “Optimization of on-resin palladium-catalyzed Sonogashira cross-coupling reaction for peptides and its use in a structure-activity relationship study of a class B GPCR ligand” (Eur J Med Chem, 2015)
pIC50: −log10 of the molar value. Calls of active or inactive are those of the source. The calls are words filed in the database; no cut-off is given here.

Columns and labels:
[1] = target: T1, Vasoactive intestinal polypeptide receptor 2 (Homo sapiens) (UniProt P41587); test: Activation of VPAC2 in human SH-SY5Y cells assessed as stimulation of forskolin-induced cAMP production at 10^-7 to 10^-5 M after 30 mins; format: functional, cell-based
T1 sequence (whole entry): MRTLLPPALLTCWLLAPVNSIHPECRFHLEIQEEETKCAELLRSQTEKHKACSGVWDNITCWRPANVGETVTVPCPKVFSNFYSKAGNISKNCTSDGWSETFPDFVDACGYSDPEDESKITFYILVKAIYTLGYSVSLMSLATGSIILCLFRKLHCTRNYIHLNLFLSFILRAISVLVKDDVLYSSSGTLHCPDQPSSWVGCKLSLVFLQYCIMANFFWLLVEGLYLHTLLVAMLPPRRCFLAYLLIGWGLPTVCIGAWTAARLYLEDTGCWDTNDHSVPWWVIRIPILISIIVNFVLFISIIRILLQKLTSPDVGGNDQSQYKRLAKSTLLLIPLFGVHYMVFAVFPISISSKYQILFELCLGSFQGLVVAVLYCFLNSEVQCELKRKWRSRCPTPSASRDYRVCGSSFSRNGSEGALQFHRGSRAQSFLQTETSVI

[2] = target: T2, Vasoactive intestinal polypeptide receptor 1 (Homo sapiens) (UniProt P32241); test: Activation of VPAC1 in human SH-SY5Y cells assessed as stimulation of forskolin-induced cAMP production at 10^-7 to 10^-5 M after 30 mins; format: functional, cell-based
T2 sequence (whole entry): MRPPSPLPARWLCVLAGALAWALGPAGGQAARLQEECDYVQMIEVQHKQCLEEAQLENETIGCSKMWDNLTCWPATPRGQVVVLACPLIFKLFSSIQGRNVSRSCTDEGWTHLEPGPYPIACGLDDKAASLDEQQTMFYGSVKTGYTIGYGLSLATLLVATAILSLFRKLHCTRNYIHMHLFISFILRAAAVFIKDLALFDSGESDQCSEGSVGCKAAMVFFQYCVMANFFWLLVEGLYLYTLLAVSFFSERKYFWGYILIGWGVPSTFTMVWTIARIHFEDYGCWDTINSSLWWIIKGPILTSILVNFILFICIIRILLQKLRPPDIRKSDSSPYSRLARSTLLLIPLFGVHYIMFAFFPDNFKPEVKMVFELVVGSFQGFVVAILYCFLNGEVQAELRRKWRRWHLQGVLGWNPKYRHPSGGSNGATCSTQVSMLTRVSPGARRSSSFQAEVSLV

[3] = target: T3, Pituitary adenylate cyclase-activating polypeptide type I receptor (Homo sapiens, UniProt P41586); test: Activation of PAC1 in human SH-SY5Y cells assessed as stimulation of forskolin-induced cAMP production at 10^-7 to 10^-5 M after 30 mins; format: cell-based
Target sequence in this assay (P41586 21-468 limits assumed): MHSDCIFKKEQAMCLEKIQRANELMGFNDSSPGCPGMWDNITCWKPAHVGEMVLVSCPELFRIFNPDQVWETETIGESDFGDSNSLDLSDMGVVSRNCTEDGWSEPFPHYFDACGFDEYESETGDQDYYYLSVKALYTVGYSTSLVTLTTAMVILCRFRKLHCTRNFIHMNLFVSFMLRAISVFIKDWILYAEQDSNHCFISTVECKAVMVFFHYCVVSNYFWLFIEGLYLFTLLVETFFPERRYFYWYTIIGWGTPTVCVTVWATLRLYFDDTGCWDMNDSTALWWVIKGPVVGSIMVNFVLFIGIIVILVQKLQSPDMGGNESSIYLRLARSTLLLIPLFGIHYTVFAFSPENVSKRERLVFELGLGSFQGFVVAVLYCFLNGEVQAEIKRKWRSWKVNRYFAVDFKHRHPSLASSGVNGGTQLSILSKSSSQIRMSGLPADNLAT

[4] = target: T3, Pituitary adenylate cyclase-activating polypeptide type I receptor; test: Displacement of Ac-[125I]-PACAP27 from recombinant human PAC1 expressed in CHO cells after 90 mins by gamma counting analysis; format: cell-based; details: for pIC50: read-out: IC50
Target sequence in this assay (P41586 whole entry): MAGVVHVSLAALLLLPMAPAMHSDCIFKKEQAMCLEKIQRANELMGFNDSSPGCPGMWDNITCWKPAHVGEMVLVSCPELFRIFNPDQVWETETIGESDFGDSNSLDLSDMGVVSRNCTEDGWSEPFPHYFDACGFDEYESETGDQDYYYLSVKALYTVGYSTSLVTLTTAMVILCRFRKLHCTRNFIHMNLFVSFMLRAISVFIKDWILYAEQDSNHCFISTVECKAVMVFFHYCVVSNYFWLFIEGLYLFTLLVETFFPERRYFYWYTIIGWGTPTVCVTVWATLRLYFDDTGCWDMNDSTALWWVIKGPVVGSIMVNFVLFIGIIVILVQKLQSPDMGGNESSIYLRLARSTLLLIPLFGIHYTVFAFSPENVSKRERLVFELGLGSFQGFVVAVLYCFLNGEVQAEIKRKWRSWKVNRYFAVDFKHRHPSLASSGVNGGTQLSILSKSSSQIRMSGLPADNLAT

[5] = target: T4, Vasoactive intestinal polypeptide receptor 1 (Homo sapiens, UniProt P32241); test: Displacement of Ac-[125I]-PACAP27 from recombinant human VPAC1 expressed in CHO cells after 90 mins by gamma counting analysis; format: cell-based; details: for pIC50: read-out: IC50
T4 sequence (P32241 whole entry): T2 sequence (whole entry)

[6] = target: T5, Vasoactive intestinal polypeptide receptor 2 (Homo sapiens, UniProt P41587); test: Displacement of Ac-[125I]-PACAP27 from recombinant human VPAC2 expressed in CHO cells after 90 mins by gamma counting analysis; format: cell-based; details: for pIC50: read-out: IC50
T5 sequence (P41587 whole entry): T1 sequence (whole entry)

SH-SY5Y = test: Neuroprotective activity against MPP+-induced toxicity in human SH-SY5Y cells assessed as increase in cell viability at 100 nM preincubated for 4 hrs followed by incubation with MPP+ for 20 hrs measured after 24 hrs by MTS assay relative to control; format: functional

For CC[C@H](C)[C@H](NC(=O)CNC(=O)[C@H](CC(=O)O)NC(=O)[C@H](CO)NC(=O)[C@@H](N)Cc1cnc[nH]1)C(=O)N[C@@H](Cc1ccc(C#Cc2ccc(F)cc2)cc1)C(=O)N[C@H](C(=O)N[C@@H](CC(=O)O)C(=O)N[C@@H](CO)C(=O)N[C@@H](Cc1ccc(O)cc1)C(=O)N[C@@H](CO)C(=O)N[C@@H](CCCNC(=N)N)C(=O)N[C@@H](Cc1ccc(O)cc1)C(=O)N[C@@H](CCCNC(=N)N)C(=O)N[C@@H](CCCCN)C(=O)N[C@@H](CCC(N)=O)C(=O)N[C@@H](CCSC)C(=O)N[C@@H](C)C(=O)N[C@H](C(=O)N[C@@H](CCCCN)C(=O)N[C@@H](CCCCN)C(=O)N[C@@H](Cc1ccc(O)cc1)C(=O)N[C@@H](CC(C)C)C(=O)N[C@@H](C)C(=O)N[C@@H](C)C(=O)N[C@H](C(=O)N[C@@H](CC(C)C)C(N)=O)C(C)C)C(C)C)[C@@H](C)O, the Activity [1] was “Active”, the Activity [2] was “Active” and the Activity [3] was “Active”. For the same compound, the pIC50 [4] was 7.24, the pIC50 [5] was 8.05 and the pIC50 [6] was 7.44. For the same compound, the Activity (SH-SY5Y) was 85%.

CC[C@H](C)[C@H](NC(=O)CNC(=O)[C@H](CC(=O)O)NC(=O)[C@H](CO)NC(=O)[C@@H](N)Cc1cnc[nH]1)C(=O)N[C@@H](Cc1ccccc1)C(=O)N[C@H](C(=O)N[C@@H](CC(=O)O)C(=O)N[C@@H](CO)C(=O)N[C@@H](Cc1ccc(O)cc1)C(=O)N[C@@H](CO)C(=O)N[C@@H](CCCNC(=N)N)C(=O)N[C@@H](Cc1ccc(O)cc1)C(=O)N[C@@H](CCCNC(=N)N)C(=O)N[C@@H](CCCCN)C(=O)N[C@@H](CCC(N)=O)C(=O)N[C@@H](CCSC)C(=O)N[C@@H](C)C(=O)N[C@H](C(=O)N[C@@H](CCCCN)C(=O)N[C@@H](CCCCN)C(=O)N[C@@H](Cc1ccc(O)cc1)C(=O)N[C@@H](CC(C)C)C(=O)N[C@@H](C)C(=O)N[C@@H](C)C(=O)N[C@H](C(=O)N[C@@H](CC(C)C)C(N)=O)C(C)C)C(C)C)[C@@H](C)O was tested, and the Activity (SH-SY5Y) was 85%.

With CC[C@H](C)[C@H](NC(=O)CNC(=O)[C@H](CC(=O)O)NC(=O)[C@H](CO)NC(=O)[C@@H](N)Cc1cnc[nH]1)C(=O)N[C@@H](Cc1ccc(-c2ccccc2)cc1)C(=O)N[C@H](C(=O)N[C@@H](CC(=O)O)C(=O)N[C@@H](CO)C(=O)N[C@@H](Cc1ccc(O)cc1)C(=O)N[C@@H](CO)C(=O)N[C@@H](CCCNC(=N)N)C(=O)N[C@@H](Cc1ccc(O)cc1)C(=O)N[C@@H](CCCNC(=N)N)C(=O)N[C@@H](CCCCN)C(=O)N[C@@H](CCC(N)=O)C(=O)N[C@@H](CCSC)C(=O)N[C@@H](C)C(=O)N[C@H](C(=O)N[C@@H](CCCCN)C(=O)N[C@@H](CCCCN)C(=O)N[C@@H](Cc1ccc(O)cc1)C(=O)N[C@@H](CC(C)C)C(=O)N[C@@H](C)C(=O)N[C@@H](C)C(=O)N[C@H](C(=O)N[C@@H](CC(C)C)C(N)=O)C(C)C)C(C)C)[C@@H](C)O the IC50 ([5]; read-out: pIC50 (converted)) was 14.1 nM and the IC50 ([6]; read-out: pIC50 (converted)) was 22.9 nM.

With CC[C@H](C)[C@H](NC(=O)CNC(=O)[C@H](CC(=O)O)NC(=O)[C@H](CO)NC(=O)[C@@H](N)Cc1cnc[nH]1)C(=O)N[C@@H](Cc1ccc(C#Cc2ccccc2)cc1)C(=O)N[C@H](C(=O)N[C@@H](CC(=O)O)C(=O)N[C@@H](CO)C(=O)N[C@@H](Cc1ccc(O)cc1)C(=O)N[C@@H](CO)C(=O)N[C@@H](CCCNC(=N)N)C(=O)N[C@@H](Cc1ccc(O)cc1)C(=O)N[C@@H](CCCNC(=N)N)C(=O)N[C@@H](CCCCN)C(=O)N[C@@H](CCC(N)=O)C(=O)N[C@@H](CCSC)C(=O)N[C@@H](C)C(=O)N[C@H](C(=O)N[C@@H](CCCCN)C(=O)N[C@@H](CCCCN)C(=O)N[C@@H](Cc1ccc(O)cc1)C(=O)N[C@@H](CC(C)C)C(=O)N[C@@H](C)C(=O)N[C@@H](C)C(=O)N[C@H](C(=O)N[C@@H](CC(C)C)C(N)=O)C(C)C)C(C)C)[C@@H](C)O the Activity [1] was “Active”, the Activity [2] was “Active” and the Activity [3] was “Active”. It also gave a pIC50 [4] of 7.28, an IC50 ([4]; read-out: pIC50 (converted)) of 44.7 nM and a pIC50 [5] of 7.92. The pIC50 [6] was 7.28 and the Activity (SH-SY5Y) was 85%.
